Here are results for one compound from patent publication US20230226079A1, “METHODS AND COMPOSITIONS FOR TREATMENT OF SOLID TUMORS” (Saint Louis University, priority 2022, published 2023).

Converted amounts (≈) assume the structure as drawn. “Also recorded” adds a separate entry of the source.

The subject of one data set is JHU029 xenograft. The data set is described as follows: Tumorigenicity assay, JHU029 xenograft model. In kind it is in vivo, nude mice. As for the experimental part: JHU029 or Ca127 cells (1.5 10^6) containing 40% Matrigel were injected subcutaneously into the flank of BALB/c athymic nude mice (7-8 weeks old). When the palpable tumor was developed (>60 mm3), mice were divided into three groups randomly, 5 mice in each group. The control group was without any treatment. The BME group received 30% (v/v) BME through drinking water. M-I group received 30 mg/kg dose of M-I once in day, every day. Body weight was monitored, and tumor size was measured using a slide caliper and volume was calculated using the formula 1/2 L X W2. After animal sacrifice tumors were dissected out and snap frozen in liquid nitrogen for further analysis. All the animal experiments were carried out in accordance NIH guidelines, following a protocol approved (1017) by the Institutional Animal Care and Use Committee (IACUC) of Saint Louis University.

Data set [1] in a line: Pharmacokinetic study, single dose. The data set is classed as in vivo, mice. Particulars: for AUC (% Extrap): C57BI/6 male mice. Here is the method:
The pharmacokinetic (PK) study of M-I was performed in male C57B1/6 mice. A single dose of M-I (formulated at 2 mg/mL dissolved in 5% DMSO/95% of a 30% w:v Captisol solution) was administered either by intraperitoneal injection (IP group, n=3) or oral gavage (PO group, n=3). After dosing, 20 uL blood samples were collected into heparin pre-coated tubes at 5 min, 15 min, 30 min, 1 h, 2 h, 4 h, 6 h, 8 h and 24 h. Samples were centrifuged, and the plasma collected. M-I concentration was determined using liquid chromatography-mass spectrometry/mass spectrometry (LC-MS/MS) as described earlier (Fuerst et al. (2018) Chem.; 26, 4984-4995).

Data set [2] concerns HNC (JHU022, JHU029, Ca127) cell lines. In kind it is cell-based. Here is the method: Ca127, JHU029, JHU022 and NOK were seeded in 96 well-plate (5000 cells/well) and cells were treated with different concentration of M-I for 48 h. There were untreated control and DMSO treated vehicle control group for comparison. Cytotoxicity assay was performed using Cell Counting Kit-8 (Dojindo Molecular Technology, Rockville, Md., USA) according to manufacturer instruction.
Due to their limited reported biology, the Inventors have selected a few triterpenoids and triterpene glycosides, based on their availability, for preliminary in vitro screening against HNC (JHU022, JHU029, Ca127) cell lines. The Inventors identified momordicine-I (M-I) as one of the chemical constituents at the retention time of 21.06 min in the BME (FIG. 1A). The M-I [C30H4804, PubChem CID: 14807332; IUPAC Name: (3S, 7S, 8S, 9R, 10R, 13R, 14S, 17R) 3,7-dihydroxy-17-(4-hydroxy-6-methylhept-5-en-2-yl)-4,4,13,14-tetramethyl-2,3,7,8,10,11, 12,15, 16,17-decahydro-1H-cyclopenta[a]phenanthrene-9-carbaldehyde] is a white crystalline solid that belongs to the cucurbitane-type triterpene class (FIG. 1B). […] Other compounds, mom ordicoside K (MK), and karavilagenin D (KD), were also examined on HNC cell cytotoxicity assay. These, two other compounds required much higher amounts (>50 ug/mL) even for -40% cell death.

In data set [3] the test system is c-Myc, survivin and cyclin D1. The data set is described as follows: Western blot for STAT3 downstream molecules in HNC cells. In kind it is cell-based. Particulars: Ca127 and JHU029 cells. Background: In western blotting, separated proteins are transferred to a membrane and probed.
Method: The powder was dissolved in DMSO and added to the cells at different concentrations. Based on cytotoxicity data, Ca127 and JHU029 cells were treated with 10 ug/mL and JHU022 cells were treated with 20 ug/mL dose of M-I and incubated for 48 hr for further experiments. All the experiments were done at least in triplicate.
HRP conjugated anti-mouse or anti-rabbit secondary antibodies were purchased from Bio-Rad (Hercules, Calif., USA). The blot was reprobed with HRP conjugated -actin antibody (1:5000; SBT) to compare protein load in each lane. Densitometry analysis was done using Image J software (NIH, Bethesda, Md., USA).
Data set [4] deals with MDA-MB-231 cells. In kind it is cell-based. An excerpt:
FIG. 10A illustrates Treated or untreated cells were stained with Calcein AM (green color indicates live cells) and ethidium homodimer-1 (red color inndicates dead cells-shown by white arrows) to quantitate the live and dead cells by fluorescence microscopy with corresponding bright field images. Magnification 10X. Arrows indicate dead cells. FIG. 10B illustrates Quantitation of relative dead cells, calculated from five random fields. Small bar indicates standard error ***p<0.001).
FIG. 11 illustrates M-I activates NK cells for killing activity. MDA-MB-231 cells were co-cultured with NK cells activated by IL2, BME or M-I. After 24 hr cell lysates were prepared and subjected to Western blot analysis using specific antibodies. Left panel: Representative western blot images for cleaved PARP, expression of cleaved Caspase 9 and 3 are shown. Membrane was reprobed with antibody for Actin as an internal control.
(§1) NK cells are implicated in drug induced resistant cancer cells to drive tumor growth (Smalley et al., 2020). […] Bitter melon extract was used as a control. Control or M-I treated NK3.3 cells were also cocultured with MDA-MB-231 cells at 1:5 (Target:Effector) ratio for 24 h and stained for viable/dead cells. […] The apoptotic markers were further examined by Western blot analysis.

The next data set has as its system 4T1 cells. The data set is described as follows: Cell viability of 4T1 cells. The data set is classed as cell-based. The conditions noted are these: Mus musculus, 72h. Here is the method:
(§2) FIG. 8 illustrates 4T1 and MDA-MB-231 cells treated with M-I at indicated doses for 72h. The viability of control cells was arbitrarily set to 100%. Results shown are an average of three independent experiments. Data are represented as mean±SD.
(§3) The Inventors tested human MDA-MB-231 and mouse 4T1 cells in dose dependent manner (FIG. 8). […] The Inventors also tested other compounds in TNBC cell cytotoxicity assays, but these required much higher amounts (>[…]) even for ˜40% cell death.

The nature of a further data set: Toxicity study, 5 days. In kind it is in vivo. Particulars: BME 30% in drinking water. As for the experimental part: For toxicity study, C57B1/6 male mice were received either 30% BME through drinking water or 20 mg/kg of M-I twice a day or 30 mg/kg of M-I once a day by IP injection for 5 days. There were three mice in each group, including untreated control. Blood was collected on day 6, and serum was prepared. Serum parameters related to hepatotoxicity (total bilirubin, alanine transaminase, aspartate transaminase, and alkaline phosphatase) and nephrotoxicity (urea and creatinine) were performed.

In another data set the test system is NK3.3 cells. The data set is described as follows: NK-cell viability. The data set is classed as cell-based. As for the experimental part:
FIG. 9 illustrates NK3.3 cells treated with bitter melon extract or M-I and cell viability was measured at 48h or 72h after treatment. Results shown are an average of three independent experiments. Small bar indicates standard error. (* p <0.05)
as §1

The conditions of data set [5]: literature; listed as Momordicine I; cited from earlier work.
Data set [6] relates to MDA-MB-231 cells. In words: Cell viability of MDA-MB-231 cells. The data set is classed as cell-based. The conditions noted are these: Homo sapiens, 72h. As for the experimental part: as §2, §3
For data set [7], the system named is normal mammary epithelial cells. In words: Cytotoxicity in normal mammary epithelial cells. The data set is classed as cell-based, human.

As a reminder, the IC50 is the concentration that inhibits the measured activity by half. Low readings indicate greater potency in that assay, high ones weaker potency in that assay. On to `CC(C)=CC(O)CC(C)[C@H]1CC[C@@]2(C)[C@@H]3[C@@H](O)C=C4[C@@H](CC[C@H](O)C4(C)C)[C@]3(C=O)CC[C@]12C` (stereo partly drawn) [M-I, (3S, 7S, 8S, 9R, 10R, 13R, 14S, 17R) 3,7-dihydroxy-17-(4-hydroxy-6-methylhept-5-en-2-yl)-4,4,13,14-tetramethyl-2,3,7,8,10,11, 12,15, 16,17-decahydro-1H-cyclopenta[a]phenanthrene-9-carbaldehyde], for which, in the data set with JHU029 xenograft (M-I 30 mg/kg IP once a day versus BME 30% in drinking water), the “reduction of tumor growth, M-I compared with BME” value is “better effect”. For the same compound, in the data set on JHU029 xenograft (M-I 30 mg/kg IP once a day, BME 30% in drinking water, sacrifice day 32), the tumor volume entry is “significantly reduced tumor volume”. The “sudden drop in body weight” value in the data set on JHU029 xenograft (three out of five mice, Day 20, M-I 30 mg/kg IP once a day, weight gained back) is −10%. Moreover, the “adverse events after single dose, IP group” value in [1] (20 mg/kg IP) is recorded as “No adverse events”. The “adverse events after single dose, oral group” value in data set [1] (20 mg/kg PO, starting four hours post-dose, not resolved by 8 h, normal after twenty-four hours) is “loose stool”. Besides, the entries for the “AUC (% Extrap)” value in [1] (20 mg/Kg IP) and in data set [1] (20 mg/Kg PO) were 0.33 ± 0.08% and 6.84 ± 1.5%, respectively. For the same compound, the “inhibition of HNC cells in cytotoxicity assay” value in data set [2] is given as “inhibited HNS cells in a dose-dependent manner”. The “STAT3 downstream molecules c-Myc, survivin and cyclin D1” value in data set [3] was “significant inhibition”. The “cytotoxicity of treated NK3.3 cells against MDA-MB-231 cells” value in the data set with MDA-MB-231 cells [4] is listed as “enhanced cytotoxicity”. In addition, the “caspase 9/3 and PARP cleavage in breast cancer cells” value in the data set with MDA-MB-231 cells [4] (M-I treated NK cells co-cultured with MDA-MB-231 cells, 24 hr, Western blot) was “activate caspase 9/3 and PARP cleavage”. In addition, the IC50 was 5 mg/L (≈ 10.6 µM) in the data set on 4T1 cells and 12 mg/L (≈ 25.4 µM) with MDA-MB-231 cells [6]. Besides, the “body weight in toxicity study” value in the data set “Toxicity study, 5 days” (M-I 20 mg/kg twice a day or 30 mg/kg once a day IP, five days) is “stable”. Moreover, the “serum total bilirubin, alanine transaminase, aspartate transaminase, alkaline phosphatase, creatinine, urea and glucose versus untreated control” value in the data set “Toxicity study, 5 days” (blood on day six, M-I IP five days) is “comparable”. For the same compound, the NK-cell viability entry in the data set on NK3.3 cells is “no cytotoxic effect”. Also, the “Reported Biology” value in data set [5] is on record as “stimulate insulin; also recorded: cardiac fibrosis”. Also, the “effect on human normal mammary epithelial cells” value in data set [7] is on record as “minimum effect”.
